Laboratory results reported in ChEMBL document CHEMBL1132877, “Novel alpha-glucosidase inhibitors with a tetrachlorophthalimide skeleton” (Bioorg Med Chem Lett, 2000).

Assays:
[1] = Inhibition of Alpha-glucosidase activity.
[2] = Compound was evaluated for binding affinity towards Alpha-glucosidase analyzed by the surface plasma resonance (SPR) method
[3] = Compound was tested for the inhibition of Alpha-glucosidase
[4] = Inhibitory effect on Alpha-glucosidase activity

Structure (SMILES) | IC50 [1] [µM] | Ka [2] [M⁻¹] | IC50 [3] [µM] | IC50 [4] [µM]
O=C1c2c(Cl)c(Cl)c(Cl)c(Cl)c2C(=O)N1CCCCCc1ccccc1 | 3.5 | 15000 | – | –
O=C1c2ccccc2C(=O)N1CCc1ccccc1 | > 500 | – | – | –
O=C1c2ccccc2C(=O)N1c1ccccc1 [N-PHENYL-PHTHALIMIDE] | > 500 | – | – | –
O=C1c2cccc(O)c2C(=O)N1c1ccccc1 | > 500 | – | – | –
O=C1c2ccccc2C(=O)N1Cc1ccccc1 | > 500 | – | – | –
O=C1c2ccc(O)cc2C(=O)N1c1ccccc1 | > 500 | – | – | –
O=C1c2c(Cl)c(Cl)c(Cl)c(Cl)c2C(=O)N1Cc1ccccc1 | 10.9 | 15000 | – | –
O=C1c2c(Cl)c(Cl)c(Cl)c(Cl)c2C(=O)N1CCCc1ccccc1 | 4.5 | 33000 | – | –
O=C1c2cccc([N+](=O)[O-])c2C(=O)N1c1ccccc1 | 25.9 | – | – | –
O=C1c2c(Cl)c(Cl)c(Cl)c(Cl)c2C(=O)N1CCCCCCc1ccccc1 | 7 | – | – | –
O=C1c2c(Cl)c(Cl)c(Cl)c(Cl)c2C(=O)N1CCCCc1ccccc1 | – | 22000 | 2 | –
Nc1ccc2c(c1)C(=O)N(c1ccccc1)C2=O | > 500 | – | – | –
O=C1c2c(Cl)c(Cl)c(Cl)c(Cl)c2C(=O)N1c1ccccc1 | 2.6 | 140000 | – | 17.9
O=C1c2c(Cl)c(Cl)c(Cl)c(Cl)c2C(=O)N1CCc1ccccc1 | 6 | 25000 | – | –
Nc1cccc2c1C(=O)N(c1ccccc1)C2=O | > 500 | – | – | –
OC[C@H]1NC[C@H](O)[C@@H](O)[C@@H]1O [DUVOGLUSTAT] | 47.6 | 210000 | – | –
O=C1c2ccc([N+](=O)[O-])cc2C(=O)N1c1ccccc1 | 23.7 | – | – | –
O=C1c2ccccc2C(=O)N1CCCc1ccccc1 | > 500 | – | – | –
